Experimental data taken from patent publication US9949947B2, “Delphinidin for combating melanoma cells” (Sapiotec GmbH, priority 2012, dated 2018).

Experiments:
cell line A-375 = test: Induction of apoptosis in combination with TRAIL, sub-G1 peak method (Example 9); type: cell-based, human; conditions: A-375, 24 hours; complex partner as control
Protocol: The same cell line and method was used in the experiments as in the preceding section II. […] The experiments were carried out in parallel both at low (low cell confluence) and higher cell density (higher cell confluence), of which the results processed graphically are shown in FIGS. 11a (low cell confluence) and 11b (higher cell confluence).

[1] = tested on: human melanoma cell line A-375; test: Induction of apoptosis, sub-G1 peak method (Example 6); type: cell-based; conditions: A-375, 24 hours; 10-3000 μg/ml delphinidin-SBE-β-CD or 15-120 μM delphinidin Cl; low and higher cell confluence (FIGS. 1, 2a, 2b)
A-375 cells [2] = test: Real-time cell analysis (RTCA) in combination with TRAIL, xCELLigence system (Example 11); type: cell-based, human; conditions: A-375, high cell confluence; TRAIL 0.02 μg/ml, SBE-β-CD 30 or 1000 μg/ml (FIGS. 16 and 17)
[3] = tested on: human melanoma cell line A-375; test: Cell viability test, WST-1 assay (Example 7); type: cell-based; conditions: A-375, 24 hours; 10-3000 μg/ml delphinidin-SBE-β-CD or 15-120 μM delphinidin Cl; low and higher cell confluence (FIGS. 3a, 3b)
A-375 cells [4] = test: Cell viability test in combination with TRAIL (Example 10); type: cell-based, human; conditions: A-375, 24 hours; complex partner as control
[5] = Stability in aqueous 0.9% NaCl solution at 37° C., delphinidin content by HPLC (Example 5); type: physicochemical; conditions: starting concentration 1.584 mg/ml (complex) or 0.0216 mg/ml (delphinidin)
Protocol: To determine the delphinidin chloride content in the delphinidin-containing solutions, a reversed-phase HPLC method was used similar to the one already described above. The following reagents were used in this case: […] The solutions were prepared at room temperature and subsequently stored in the dark at 37° C. in closed vials. […] The table below gives the content determined as a percentage of the starting concentration stated above. The determination of the delphinidin content in the samples was calculated with the aid of the Agilent ChemStation software using the calibration with the external standard described.

A-375 cells [6] = test: Microscopic analysis of cell morphology after 24 hours of treatment; conditions: A-375, after 24 hours of treatment, high concentrations (FIG. 4)
[7] = Solubility of delphinidin chloride in aqueous cyclodextrin solutions (Example 1); conditions: pure water, cyclodextrin concentration 0; excess delphinidin chloride, stirred at 30° C. for 20 h in the dark, filtered 0.22 μm
[8] = tested on: human dermal microvascular endothelial cells; test: Cytotoxicity, cell vitality by ATP luminescence assay, endothelial cells (Example 12); type: cell-based; conditions: 0.1-100 μM (0.1 μM; 3.2 μM; 100 μM), Day 1-Day 4, FIG. 18
Description: The human dermal microvascular endothelial cells were obtained by the standard method known to those skilled in the art of Hewett and Murray (1993) [Hewett P. W. and Murray J. C. (1993) Immunomagnetic purification of human microvessel endothelial cells using Dynabeads coated monoclonal antibodies to PECAM-1. Eur J Cell Biol 62: 451-454; Hewett P. W. & Murray J. C. (1993) Human microvessel endothelial cells: Isolation, culture and characterization. In Vitro Cell Biol: 823-830].

human fibroblasts = test: Cytotoxicity, cell vitality by ATP luminescence assay, fibroblasts (Example 12); conditions: 0.1-100 μM (0.1 μM; 3.2 μM; 100 μM), FIG. 19
Protocol: The cells used were primary, even isolated fibroblasts and microvascular endothelial cells from human donor skin.
To isolate the fibroblasts, the tissue cell structure was dissolved by means of a one-hour incubation with trypsin-EDTA solution. To stop the cell detachment reaction, stop medium was added to the skin. The piece of skin was then swirled twice in PBS resulting in a suspension of fibroblasts. The fibroblasts obtained were centrifuged at 4° C. for 5 min at 100 revolutions per minute and were used after quantification.
In the experiments according to Example 12, the effect of the substances investigated on the vitality of human fibroblasts and endothelial cells was investigated using the ATP luminescence assay, which is known to those skilled in the art and is briefly summarized below for the sake of completeness.
By the inhibition of endogenous ATPases, the ATP content liberated by lysis can thus be used as a measure for the number of vital cells. For the quantification, the liberated ATP is coupled to a reaction catalyzed by the enzyme luciferase, in which the ATP-dependent oxidation of the substrate luciferin to oxyluciferin, carbon dioxide, AMP and inorganic phosphate takes place in the presence of Mg^2+, with release of light. […] This is measured in RLU (relative light units), an independent unit which reflects the amount of ATP in the sample. […]

| Compound | Induction of apoptosis (sub-G1 peak) (cell line A-375) | Induction of apoptosis (sub-G1 peak) [1] | Intensification of TRAIL sensitivity (A-375 cells [2]) | Effect on cell viability (loss of vital cells) [3] | Cell vitality (A-375 cells [4]) | Delphinidin content as a percentage of the starting concentration ([5]; 0 h) | Delphinidin content as a percentage of the starting concentration ([5]; 1 h, 37° C. in the dark) | Delphinidin content as a percentage of the starting concentration ([5]; 2 h, 37° C. in the dark) | Delphinidin content as a percentage of the starting concentration ([5]; 3 h, 37° C. in the dark) | Delphinidin content as a percentage of the starting concentration ([5]; 4 h, 37° C. in the dark) | Morphology of the cells under microscopic analysis (A-375 cells [6]) | Delphinidin chloride, solubility achievable [7] | Cytotoxic effects on cell vitality [8] | Cytotoxic effects on cell vitality (human fibroblasts) |
| --- | --- | --- | --- | --- | --- | --- | --- | --- | --- | --- | --- | --- | --- | --- |
| sulfobutyl ether β-cyclodextrin [SBE-β-CD] | at control level | no effect | No intensification of TRAIL sensitivity | no effect | at control level | – | – | – | – | – | – | – | – | – |
| Oc1cc(O)c2cc(O)c(-c3cc(O)c(O)c(O)c3)[o+]c2c1.[Cl-] [delphinidin Cl, delphinidin chloride] | – | significant dose-dependent induction of apoptosis | – | loss of vital cells with increasing dose | – | 100% | 8.3% | 6.5% | 5.6% | 5.1% | globular and/or detached | 70 µg/mL | no significant cytotoxic effects | no significant cytotoxic effects |
